Columns and labels:
Drosophila melanogaster = test: Screen of individual and combined compounds on age-related physiological parameters (maximal heart rate and exercise capacity); format: in vivo; conditions: separate study of the five best combinations with larger number of flies; FIG. 3
Source text: The first dataset of combined interventions. We performed an initial screen of compounds for their effects on cardiac aging in Drosophila, selected for their very general effects on multiple biological functions, known low toxicity and, for some, known effects on aging in other models (Wood et al., Nature 430:686-689, 2004).
After screening 44 compounds individually at multiple doses (a total of 300 groups, each composed of 10-20 flies), we chose two doses each of four compounds for more comprehensive measurements of their combined effects on three age-related phenotypes: maximal heart rate and exercise capacity declines with age and survival. […]

mice = conditions: 2 mg/ml in the drinking water, chronic; cited from earlier work
flies = test: Development of flies under doxycycline; format: in vivo, Drosophila

Row | effect on development in flies (flies) | Compound | functional improvement confirmed in additional tests (climbing velocity and maximal heart rate) (Drosophila melanogaster) | effect on body weight (mice) | plasma levels (mice)
1 | – | Oc1ccc(C=Cc2cc(O)cc(O)c2)cc1 [resveratrol] | not | – | –
2 | slows development | C[C@H]1c2cccc(O)c2C(=O)C2=C(O)[C@]3(O)C(=O)C(C(N)=O)=C(O)[C@@H](N(C)C)[C@@H]3[C@@H](O)[C@@H]21 [doxycycline] | – | no effect | close to saturation

Reference: patent publication US20090087497A1, “Compositions and methods for treating symptoms of aging” (Burnham Institute for Medical Research, priority 2007, published 2009)
